Test results reported in publication PMC12396409, “Screening and hit evaluation of a microbial metabolite library against the pathogenic Plasmodium falciparum and Toxoplasma gondii parasites” (International Journal for Parasitology: Drugs and Drug …, 2025).
Like-named read-outs stand apart in the source and are kept apart here.

What was measured:
[1] = system: P. falciparum 3D7 parasites; assay: P. falciparum growth inhibition assay, 1-cycle (72 h treatment), SYBR DNA staining (library screen at 2 μg/mL and dose-response); format: cell-based, Plasmodium falciparum; conditions: for activity at 2 µg/mL: Plasmodium falciparum, 3D7
[2] = system: T. gondii RH strain (RH-Tub-eYFP) tachyzoites; assay: microbe, parasite or virus in culture; format: cell-based, Toxoplasma gondii; conditions: 72 h; for percent parasite growth at 2 µg/mL: Toxoplasma gondii
[3] = system: P. falciparum 3D7 parasites; assay: P. falciparum growth inhibition assay, 2-cycle (120 h treatment), delayed-death screen and dose-response; format: cell-based, Plasmodium falciparum; conditions: for activity at 2 µg/mL: Plasmodium falciparum, 3D7
[4] = P. falciparum, 72 h, screen at 2 μg/mL, replicate 1
[5] = P. falciparum, 72 h, screen at 2 μg/mL, replicate 2
[6] = T. gondii, screen at 2 μg/mL, replicate 1
[7] = T. gondii, screen at 2 μg/mL, replicate 2
[8] = P. falciparum, 120 h, screen at 2 μg/mL, replicate 1
[9] = P. falciparum, 120 h, screen at 2 μg/mL, replicate 2
[10] = library screen at 2 μg/mL, 72 h, % growth, replicate 1
[11] = library screen at 2 μg/mL, 72 h, % growth, replicate 2
[12] = library screen at 2 μg/mL, % growth, replicate 1
[13] = library screen at 2 μg/mL, % growth, replicate 2
[14] = library screen at 2 μg/mL, 120 h, % growth, replicate 1
[15] = library screen at 2 μg/mL, 120 h, % growth, replicate 2
[16] = P. falciparum 3D7, 72 h, parasite screen at 2 μg/mL, % growth, replicate 1
[17] = P. falciparum 3D7, 72 h, parasite screen at 2 μg/mL, % growth, replicate 2
[18] = T. gondii, parasite screen at 2 μg/mL, % growth, replicate 1
[19] = T. gondii, parasite screen at 2 μg/mL, % growth, replicate 2
[20] = P. falciparum 3D7, 120 h, parasite screen at 2 μg/mL, % growth, replicate 1
[21] = P. falciparum 3D7, 120 h, parasite screen at 2 μg/mL, % growth, replicate 2

CC(C)C[C@@H]1NC(=O)[C@@H]2CCCN2C1=O [Cyclo(L-Leu-L-Pro)]
Pf_72h_%Growth_Rep1 [1, 4]: 83.89%
Pf_72h_%Growth_Rep2 [1, 5]: 81.36%
Tg_72h_%Growth_Rep1 [2, 6]: 124.64%
Tg_72h_%Growth_Rep2 [2, 7]: 91.02%
Pf_120h_%Growth_Rep1 [3, 8]: 82.10%
Pf_120h_%Growth_Rep2 [3, 9]: 83.93%

CCCCCCC(C)C/C(C)=C/C(C)/C=C(C)/C=C/C(O)C(C)(C)c1cc(O)c([C@@H]2O[C@H](CO)C[C@H](O)[C@H]2O)c(=O)o1 (stereo partly drawn) [Deoxyfusapyrone]
Pf_72h_%Growth_Rep1 [1, 4]: 84.11%
Pf_72h_%Growth_Rep2 [1, 5]: 85.81%
Tg_72h_%Growth_Rep1 [2, 6]: 120.14%
Tg_72h_%Growth_Rep2 [2, 7]: 99.56%
Pf_120h_%Growth_Rep1 [3, 8]: 68.41%
Pf_120h_%Growth_Rep2 [3, 9]: 93.55%

O=c1c(-c2ccc(O)cc2)coc2cc(O)ccc12 [Daidzein]
activity at 2 µg/mL ([1]; P. falciparum, 72 h, screen at 2 μg/mL, replicate 1, read-out: Pf_72h_%Growth_Rep1): 83.8%
activity at 2 µg/mL ([1]; P. falciparum, 72 h, screen at 2 μg/mL, replicate 2, read-out: Pf_72h_%Growth_Rep2): 88.8%
percent parasite growth at 2 µg/mL ([2]; T. gondii, screen at 2 μg/mL, replicate 1, read-out: Tg_72h_%Growth_Rep1): 125%
percent parasite growth at 2 µg/mL ([2]; T. gondii, screen at 2 μg/mL, replicate 2, read-out: Tg_72h_%Growth_Rep2): 97%
activity at 2 µg/mL ([3]; P. falciparum, 120 h, screen at 2 μg/mL, replicate 1, read-out: Pf_120h_%Growth_Rep1): 103%
activity at 2 µg/mL ([3]; P. falciparum, 120 h, screen at 2 μg/mL, replicate 2, read-out: Pf_120h_%Growth_Rep2): 95.5%

CO[C@H]1/C=C/C=C/C=C/C[C@H](OC(=O)[C@@H](C)NC(=O)C2CCCCC2)[C@H](C)[C@@H](O)/C(C)=C\CCC2=CC(=O)C=C(NC(=O)C1)C2=O [Ansatrienin A]
Pf_72h_%Growth_Rep1 [1, 10]: 2.60%
Pf_72h_%Growth_Rep2 [1, 11]: 3.94%
Tg_72h_%Growth_Rep1 [2, 12]: 38.64%
Tg_72h_%Growth_Rep2 [2, 13]: 44.79%
Pf_120h_%Growth_Rep1 [3, 14]: 4.00%
Pf_120h_%Growth_Rep2 [3, 15]: -9.91%

O=C(O)c1cccc2nc3ccccc3nc12 [Tubermycin B]
Pf_72h_%Growth_Rep1 [1, 4]: 44.49%
Pf_72h_%Growth_Rep2 [1, 5]: 34.95%
Tg_72h_%Growth_Rep1 [2, 6]: 87.24%
Tg_72h_%Growth_Rep2 [2, 7]: 96.39%
Pf_120h_%Growth_Rep1 [3, 8]: 88.83%
Pf_120h_%Growth_Rep2 [3, 9]: 26.83%

Cc1c2c(c(O)c3c(O)cccc13)C(=O)O[C@@H]2[C@H]1[C@H](N(C)C)C(O)=C(C(N)=O)C(=O)[C@@H]1O [Apooxytetracycline, beta-]
Pf_72h_%Growth_Rep1 [1, 10]: 86.47%
Pf_72h_%Growth_Rep2 [1, 11]: 89.55%
Tg_72h_%Growth_Rep1 [2, 12]: 117.82%
Tg_72h_%Growth_Rep2 [2, 13]: 102.07%
Pf_120h_%Growth_Rep1 [3, 14]: 69.86%
Pf_120h_%Growth_Rep2 [3, 15]: 97.44%

Cc1ncc(-c2c[nH]c3ccccc23)o1 [BIA-P1070]
Pf_72h_%Growth_Rep1 [1, 16]: 82.71%
Pf_72h_%Growth_Rep2 [1, 17]: 88.10%
Tg_72h_%Growth_Rep1 [2, 18]: 139.44%
Tg_72h_%Growth_Rep2 [2, 19]: 88.28%
Pf_120h_%Growth_Rep1 [3, 20]: 92.74%
Pf_120h_%Growth_Rep2 [3, 21]: 139.06%

CC(=O)O[C@@H]1C[C@]2(C)[C@@]3(CO)[C@H](O)C(=O)C(C)=C[C@H]3O[C@H]1[C@@]21CO1 [Acetyldeoxynivalenol, 3-]
Pf_72h_%Growth_Rep1 [1, 10]: 11.16%
Pf_72h_%Growth_Rep2 [1, 11]: 9.81%
Tg_72h_%Growth_Rep1 [2, 12]: 4.23%
Tg_72h_%Growth_Rep2 [2, 13]: 6.65%
Pf_120h_%Growth_Rep1 [3, 14]: 14.50%
Pf_120h_%Growth_Rep2 [3, 15]: 5.88%

O=C1Cc2ccccc2N1 [BIA-O1735]
Pf_72h_%Growth_Rep1 [1, 16]: 82.92%
Pf_72h_%Growth_Rep2 [1, 17]: 80.95%
Tg_72h_%Growth_Rep1 [2, 18]: 124.39%
Tg_72h_%Growth_Rep2 [2, 19]: 90.71%
Pf_120h_%Growth_Rep1 [3, 20]: 73.62%
Pf_120h_%Growth_Rep2 [3, 21]: 127.66%

COc1cc(O)c2c(=O)oc3c(O)c(OC)cc(C)c3c2c1 [BIA-G1559]
Pf_72h_%Growth_Rep1 ([1]; P. falciparum 3D7, 72 h, library screen at 2 μg/mL, % growth, replicate 1): 89.69%
Pf_72h_%Growth_Rep2 ([1]; P. falciparum 3D7, 72 h, library screen at 2 μg/mL, % growth, replicate 2): 92.13%
Tg_72h_%Growth_Rep1 ([2]; T. gondii RH, library screen at 2 μg/mL, % growth, replicate 1): 136.29%
Tg_72h_%Growth_Rep2 ([2]; T. gondii RH, library screen at 2 μg/mL, % growth, replicate 2): 91.52%
Pf_120h_%Growth_Rep1 ([3]; P. falciparum 3D7, 120 h, library screen at 2 μg/mL, % growth, replicate 1): 94.64%
Pf_120h_%Growth_Rep2 ([3]; P. falciparum 3D7, 120 h, library screen at 2 μg/mL, % growth, replicate 2): 147.16%
